# Results from patent US9428514B2, “Bromodomain inhibitors” (AbbVie Inc., priority 2013, dated 2016).
# Tested on: breast cancer cell line MX-1
# Test: MX-1 cell line proliferation assay (3-day, Cell Titer Glo)
# Format: cell-based
# Details: Homo sapiens, MX1, MX-1 cells, 72 hours, read-out: Cellular proliferation: EC50
# Description: The impact of compounds of the Examples on cancer cell proliferation was determined using the breast cancer cell line MX-1 (ATCC) in a 3-day proliferation assay. MX-1 cells were maintained in RPMI supplemented with 10% FBS at 37° C. and an atmosphere of 5% CO2. For compound testing, MX-1 cells were plated in 96-well black bottom plates at a density of 5000 cells/well in 90 μL of culture media and incubated at 37° overnight to allow cell adhesion and spreading. Compound dilution series were prepared in DMSO via a 3-fold serial dilution from 3 mM to […]. The DMSO dilution series were then diluted 1:100 in phosphate buffered saline, and 10 μL of the resulted solution were added to the appropriate wells of the MX-1 cell plate. The final compound concentrations in the wells were 3, 1, 0.3, 0.1, 0.03, 0.01, 0.003, 0.001, 0.0003, 0.0001, and 0.00003 μM.
# Luminescence readings from the Cell Titer Glo assay were normalized to the DMSO treated cells and analyzed using the GraphPad Prism software with sigmoidal curve fitting to obtain EC50s. The minimum significant ratio (MSR) was determined to evaluate assay reproducibility (Eastwood et al., (2006) J Biomol Screen, 11: 253-261). The overall MSR was determined to be 2.1 and a moving MSR (last six run MSR overtime) has been <2. The EC50 values are reported in Table 1 for the indicated compounds.
row,EC50 [nM],SMILES
1,550,"CCOc1cc(=O)n(C)cc1-c1cc(N(Cc2cnn(C)c2)S(=O)(=O)CC)ccc1Oc1ccc(F)cc1F [Example 97, N-[4-(2,4-difluorophenoxy)-3-(4-ethoxy-1-methyl-6-oxo-1,6-dihydropyridin-3-yl)phenyl]-N-[(1-methyl-1H-pyrazol-4-yl)methyl]ethanesulfonamide]"
2,> 1000,"CCOc1cc(=O)n(C)cc1-c1cc(N(Cc2cnn(C)c2)S(=O)(=O)Cc2ccccc2)ccc1Oc1ccc(F)cc1F [Example 98, N-[4-(2,4-difluorophenoxy)-3-(4-ethoxy-1-methyl-6-oxo-1,6-dihydropyridin-3-yl)phenyl]-N-[(1-methyl-1H-pyrazol-4-yl)methyl]-1-phenylmethanesulfonamide]"
3,555,"CCOc1cc(=O)n(C)cc1-c1cc(N(Cc2nccs2)S(=O)(=O)CC)ccc1Oc1ccc(F)cc1F [Example 99, N-[4-(2,4-difluorophenoxy)-3-(4-ethoxy-1-methyl-6-oxo-1,6-dihydropyridin-3-yl)phenyl]-N-(1,3-thiazol-2-ylmethyl)ethanesulfonamide]"
4,> 1000,"CCOc1cc(=O)n(C)cc1-c1cc(N(Cc2cn(C)cn2)S(=O)(=O)CC)ccc1Oc1ccc(F)cc1F [Example 100, N-[4-(2,4-difluorophenoxy)-3-(4-ethoxy-1-methyl-6-oxo-1,6-dihydropyridin-3-yl)phenyl]-N-[(1-methyl-1H-imidazol-4-yl)methyl]ethanesulfonamide]"
5,> 1000,"CCOc1cc(=O)n(C)cc1-c1cc(N(Cc2cn(C)cn2)S(=O)(=O)Cc2ccccc2)ccc1Oc1ccc(F)cc1F [Example 101, N-[4-(2,4-difluorophenoxy)-3-(4-ethoxy-1-methyl-6-oxo-1,6-dihydropyridin-3-yl)phenyl]-N-[(1-methyl-1H-imidazol-4-yl)methyl]-1-phenylmethanesulfonamide]"
6,710,"CCOc1cc(=O)n(C)cc1-c1cc(N(C[C@H]2COCCO2)S(=O)(=O)CC)ccc1Oc1ccc(F)cc1F [Example 102, N-[4-(2,4-difluorophenoxy)-3-(4-ethoxy-1-methyl-6-oxo-1,6-dihydropyridin-3-yl)phenyl]-N-[(2S)-1,4-dioxan-2-ylmethyl]ethanesulfonamide]"
7,677,"CCOc1cc(=O)n(C)cc1-c1cc(N(CC2CCOCC2)S(=O)(=O)CC)ccc1Oc1ccc(F)cc1F [Example 103, N-[4-(2,4-difluorophenoxy)-3-(4-ethoxy-1-methyl-6-oxo-1,6-dihydropyridin-3-yl)phenyl]-N-(tetrahydro-2H-pyran-4-ylmethyl)ethanesulfonamide]"
